Data as given in patent US11261177B2, “Benzoxazinone derivatives useful as herbicides” (REDAG CROP PROTECTION LTD, priority 2017, dated 2022).

How the values were obtained:
Type in all cases: in vivo
Lolium perenne [1] = assay: Post-emergence herbicidal assay, 96 cell trays, glasshouse; conditions: 168 h, Lollium, assessed 7 days after treatment, read-out: % control of plant growth; for pest or weed control at 200 g/ha: 0.2 kg/ha; for pest or weed control at 1000 g/ha: 1 kg/ha; for pest or weed control at 5000 g/ha: 5 kg/ha
Experimental: (§1) The compounds were screened at three concentrations (0.2, 1 and 5 kg/ha) against 2 weed species (Stellaria media—Chickweed and Lolium perenne). The seeds were sown in the cells of 96 cell trays (4-6 seeds per cell). For the pre-emergence assay, 75 μL of a suspension of the test compound, at the above doses, was added on top of the soil 1 day after sowing. For the post-emergence assay, the seedlings were sprayed with 200 μL of a suspension of the test compound two weeks after sowing. The formulation used is 25% acetone and 75% water/0.01% Tween 20. Each treatment was replicated three times. The plants were kept in a glasshouse (uncontrolled conditions) and assessed 7 days after treatment. A small number of compounds were tested in a first trial. A larger number of compounds were tested in a second trial. The assessment was based on the % control of plant growth in each cell.

[2] = tested on: Stellaria media—Chickweed; assay: as above; conditions: 168 h, assessed 7 days after treatment, read-out: % control of plant growth; for pest or weed control at 200 g/ha: 0.2 kg/ha; for pest or weed control at 1000 g/ha: 1 kg/ha; for pest or weed control at 5000 g/ha: 5 kg/ha
Experimental: as §1

Lolium perenne [3] = assay: Pre-emergence herbicidal assay, 96 cell trays, glasshouse; conditions: 168 h, Lollium, assessed 7 days after treatment, read-out: % control of plant growth; for pest or weed control at 200 g/ha: 0.2 kg/ha; for pest or weed control at 1000 g/ha: 1 kg/ha; for pest or weed control at 5000 g/ha: 5 kg/ha
Experimental: as §1

[4] = tested on: Stellaria media—Chickweed; assay: as above; conditions: 168 h, assessed 7 days after treatment, read-out: % control of plant growth; for pest or weed control at 200 g/ha: 0.2 kg/ha; for pest or weed control at 1000 g/ha: 1 kg/ha; for pest or weed control at 5000 g/ha: 5 kg/ha
Experimental: as §1

Row | Structure (SMILES) | pest or weed control at 200 g/ha (Lolium perenne [1]; second trial (Table 2)) [%] | pest or weed control at 1000 g/ha (Lolium perenne [1]; second trial (Table 2)) [%] | pest or weed control at 5000 g/ha (Lolium perenne [1]; second trial (Table 2)) [%] | pest or weed control at 200 g/ha ([2]; second trial (Table 2)) [%] | pest or weed control at 1000 g/ha ([2]; second trial (Table 2)) [%] | pest or weed control at 5000 g/ha ([2]; second trial (Table 2)) [%] | pest or weed control at 1000 g/ha (Lolium perenne [3]; second trial (Table 2)) [%] | pest or weed control at 5000 g/ha (Lolium perenne [3]; second trial (Table 2)) [%] | pest or weed control at 1000 g/ha ([4]; second trial (Table 2)) [%] | pest or weed control at 5000 g/ha ([4]; second trial (Table 2)) [%] | other results
1 | C#CCN1C(=O)C2(CC2)Oc2cc(F)c(-n3c(=O)n(C)c(=S)n(C)c3=O)cc21 [Comparative Example, 3-(7-Fluoro-3-oxo-4-(prop-2-yn-1-yl)-3,4-dihydrospiro[benzo[b][1,4]oxazine-2,1′-cyclopropan]-6-yl)-1,5-dimethyl-6-thioxo-1,3,5-triazinane-2,4-dione, reference compound] | 20 to 80 | 20 to 80 | 80 to 100 | 20 to 80 | 80 to 100 | 80 to 100 | 20 to 80 | 80 to 100 | 80 to 100 | 80 to 100 | pest or weed control at 200 g/ha (Lolium perenne [1]; first trial (Table 1)): 20 to 80%; pest or weed control at 1000 g/ha (Lolium perenne [1]; first trial (Table 1)): 20 to 80%; pest or weed control at 5000 g/ha (Lolium perenne [1]; first trial (Table 1)): 80 to 100%; pest or weed control at 200 g/ha ([2]; first trial (Table 1)): < 20%; pest or weed control at 1000 g/ha ([2]; first trial (Table 1)): 20 to 80%; pest or weed control at 5000 g/ha ([2]; first trial (Table 1)): 20 to 80%; pest or weed control at 200 g/ha (Lolium perenne [3]; first trial (Table 1)): < 20%; pest or weed control at 1000 g/ha (Lolium perenne [3]; first trial (Table 1)): 20 to 80%; pest or weed control at 5000 g/ha (Lolium perenne [3]; first trial (Table 1)): 80 to 100%; pest or weed control at 200 g/ha (Lolium perenne [3]; second trial (Table 2)): < 20%; pest or weed control at 200 g/ha ([4]; first trial (Table 1)): < 20%; pest or weed control at 1000 g/ha ([4]; first trial (Table 1)): < 20%; pest or weed control at 5000 g/ha ([4]; first trial (Table 1)): < 20%; pest or weed control at 200 g/ha ([4]; second trial (Table 2)): 20 to 80%
2 | C#CCN1C(=O)C2(CC2)Oc2cc(F)c(N3C(=O)C4=C(CCCC4)C3=O)cc21 [Example 1, 2-(7-Fluoro-3-oxo-4-(prop-2-yn-1-yl)-3,4-dihydrospiro[benzo[b][1,4]oxazine-2,1′-cyclopropan]-6-yl)-4,5,6,7-tetrahydro-1H-isoindole-1,3(2H)-dione] | 20 to 80 | 80 to 100 | 80 to 100 | 80 to 100 | 80 to 100 | 80 to 100 | 20 to 80 | 80 to 100 | 80 to 100 | 80 to 100 | pest or weed control at 200 g/ha (Lolium perenne [1]; first trial (Table 1)): < 20%; pest or weed control at 1000 g/ha (Lolium perenne [1]; first trial (Table 1)): 20 to 80%; pest or weed control at 5000 g/ha (Lolium perenne [1]; first trial (Table 1)): 80 to 100%; pest or weed control at 200 g/ha ([2]; first trial (Table 1)): < 20%; pest or weed control at 1000 g/ha ([2]; first trial (Table 1)): 20 to 80%; pest or weed control at 5000 g/ha ([2]; first trial (Table 1)): 20 to 80%; pest or weed control at 200 g/ha (Lolium perenne [3]; first trial (Table 1)): 20 to 80%; pest or weed control at 1000 g/ha (Lolium perenne [3]; first trial (Table 1)): 20 to 80%; pest or weed control at 5000 g/ha (Lolium perenne [3]; first trial (Table 1)): 20 to 80%; pest or weed control at 200 g/ha (Lolium perenne [3]; second trial (Table 2)): 20 to 80%; pest or weed control at 200 g/ha ([4]; first trial (Table 1)): < 20%; pest or weed control at 1000 g/ha ([4]; first trial (Table 1)): < 20%; pest or weed control at 5000 g/ha ([4]; first trial (Table 1)): < 20%; pest or weed control at 200 g/ha ([4]; second trial (Table 2)): 20 to 80%
3 | C#CCN1C(=O)C2(CC2)Oc2cc(F)c(N3C(=O)C(=O)N(CCC)C3=S)cc21 [Example 2, 1-(7-Fluoro-3-oxo-4-(prop-2-yn-1-yl)-3,4-dihydrospiro[benzo[b][1,4]oxazine-2,1′-cyclopropan]-6-yl)-3-propyl-2-thioxoimidazolidine-4,5-dione] | < 20 | < 20 | < 20 | 20 to 80 | 20 to 80 | 20 to 80 | < 20 | < 20 | 20 to 80 | 20 to 80 | pest or weed control at 200 g/ha (Lolium perenne [1]; first trial (Table 1)): < 20%; pest or weed control at 1000 g/ha (Lolium perenne [1]; first trial (Table 1)): < 20%; pest or weed control at 5000 g/ha (Lolium perenne [1]; first trial (Table 1)): < 20%; pest or weed control at 200 g/ha ([2]; first trial (Table 1)): 20 to 80%; pest or weed control at 1000 g/ha ([2]; first trial (Table 1)): 20 to 80%; pest or weed control at 5000 g/ha ([2]; first trial (Table 1)): 20 to 80%; pest or weed control at 200 g/ha (Lolium perenne [3]; first trial (Table 1)): < 20%; pest or weed control at 1000 g/ha (Lolium perenne [3]; first trial (Table 1)): < 20%; pest or weed control at 5000 g/ha (Lolium perenne [3]; first trial (Table 1)): < 20%; pest or weed control at 200 g/ha (Lolium perenne [3]; second trial (Table 2)): < 20%; pest or weed control at 200 g/ha ([4]; first trial (Table 1)): 20 to 80%; pest or weed control at 1000 g/ha ([4]; first trial (Table 1)): 20 to 80%; pest or weed control at 5000 g/ha ([4]; first trial (Table 1)): 20 to 80%; pest or weed control at 200 g/ha ([4]; second trial (Table 2)): 20 to 80%
4 | C#CCN1C(=O)C2(CC2)Oc2cc(F)c(-n3nc(C(C)(C)C)oc3=O)cc21 [Example 3, 6-(5-(tert-Butyl)-2-oxo-1,3,4-oxadiazol-3(2H)-yl)-7-fluoro-4-(prop-2-yn-1-yl)spiro[benzo[b][1,4]oxazine-2,1′-cyclopropan]-3(4H)-one] | – | – | – | – | – | – | – | – | – | – | pest or weed control at 200 g/ha (Lolium perenne [1]; first trial (Table 1)): 20 to 80%; pest or weed control at 1000 g/ha (Lolium perenne [1]; first trial (Table 1)): 80 to 100%; pest or weed control at 5000 g/ha (Lolium perenne [1]; first trial (Table 1)): 80 to 100%; pest or weed control at 200 g/ha ([2]; first trial (Table 1)): 20 to 80%; pest or weed control at 1000 g/ha ([2]; first trial (Table 1)): 20 to 80%; pest or weed control at 5000 g/ha ([2]; first trial (Table 1)): 20 to 80%; pest or weed control at 200 g/ha (Lolium perenne [3]; first trial (Table 1)): < 20%; pest or weed control at 1000 g/ha (Lolium perenne [3]; first trial (Table 1)): 20 to 80%; pest or weed control at 5000 g/ha (Lolium perenne [3]; first trial (Table 1)): 80 to 100%; pest or weed control at 200 g/ha ([4]; first trial (Table 1)): 20 to 80%; pest or weed control at 1000 g/ha ([4]; first trial (Table 1)): 80 to 100%; pest or weed control at 5000 g/ha ([4]; first trial (Table 1)): 80 to 100%
5 | C#CCN1C(=O)C2(CC2)Oc2cc(F)c(N3C(=O)c4ccc(F)cc4C3=O)cc21 [Example 5] | 20 to 80 | 20 to 80 | 80 to 100 | 80 to 100 | 80 to 100 | 80 to 100 | 20 to 80 | 80 to 100 | 80 to 100 | 80 to 100 | –
6 | C#CCN1C(=O)C2(CC2)Oc2cc(F)c(N3C(=O)c4cccc(F)c4C3=O)cc21 [Example 6] | 20 to 80 | 80 to 100 | 80 to 100 | 20 to 80 | 80 to 100 | 80 to 100 | < 20 | 20 to 80 | 20 to 80 | 80 to 100 | pest or weed control at 200 g/ha (Lolium perenne [3]; second trial (Table 2)): < 20%; pest or weed control at 200 g/ha ([4]; second trial (Table 2)): 20 to 80%
7 | O=C1N(CC2CC2)c2cc(/N=c3\sc(=O)n4n3CCCC4)c(F)cc2OC12CC2 [Example 37] | 20 to 80 | 20 to 80 | 80 to 100 | 80 to 100 | 80 to 100 | 80 to 100 | – | – | – | – | –
8 | COC(=O)C(C)N1C(=O)C2(CC2)Oc2cc(F)c(/N=c3\sc(=O)n4n3CCCC4)cc21 (stereo not shown) [Example 38] | 20 to 80 | 20 to 80 | 80 to 100 | 80 to 100 | 80 to 100 | 80 to 100 | – | – | – | – | –
9 | C#CCN1C(=O)C2(CC2)Oc2cc(F)c(N3C(=O)C4COCCN4C3=O)cc21 (stereo not shown) [Example 45, 2-(7-Fluoro-3-oxo-4-(prop-2-yn-1-yl)-3,4-dihydrospiro[benzo[b][1,4]oxazine-2,1′-cyclopropan]-6-yl)tetrahydro-1H-imidazo[5,1-c][1,4]oxazine-1,3(2H)-dione] | 80 to 100 | 80 to 100 | 80 to 100 | 80 to 100 | 80 to 100 | 80 to 100 | – | – | – | – | –
10 | O=C1C2CC(O)CN2C(=O)N1c1cc2c(cc1F)OC1(CC1)C(=O)N2CC1CC1 (stereo not shown) [Example 46] | < 20 | < 20 | < 20 | < 20 | < 20 | < 20 | – | – | – | – | –
11 | O=C1C2COCCN2C(=O)N1c1cc2c(cc1F)OC1(CC1)C(=O)N2CC1CC1 (stereo not shown) [Example 48] | < 20 | < 20 | 20 to 80 | 80 to 100 | 80 to 100 | 80 to 100 | – | – | – | – | –
12 | COC(=O)C(C)N1C(=O)C2(CC2)Oc2cc(F)c(N3C(=O)C4COCCN4C3=O)cc21 (stereo not shown) [Example 49] | < 20 | < 20 | < 20 | 80 to 100 | 80 to 100 | 80 to 100 | – | – | – | – | –
13 | N#CCN1C(=O)C2(CC2)Oc2cc(F)c(N3C(=O)C4COCCN4C3=O)cc21 (stereo not shown) [Example 50] | < 20 | < 20 | < 20 | 80 to 100 | 80 to 100 | 80 to 100 | – | – | – | – | –
14 | CC(C)=CCN1C(=O)C2(CC2)Oc2cc(F)c(N3C(=O)C4COCCN4C3=O)cc21 (stereo not shown) [Example 51] | < 20 | < 20 | < 20 | 80 to 100 | 80 to 100 | 80 to 100 | – | – | – | – | –
15 | O=C1C2CCCN2C(=O)N1c1cc2c(cc1F)OC1(CC1)C(=O)N2CC1CC1 (stereo not shown) [Example 52] | < 20 | 20 to 80 | 20 to 80 | 80 to 100 | 80 to 100 | 80 to 100 | – | – | – | – | –
